Earlier results as cited in patent US10154967B2, “2,2′,6,6′-tetraisopropyl-4,4′-biphenol lipid microsphere preparations and preparation methods therefor” (XI'AN LIBANG PHARMACEUTICAL CO., LTD, priority 2012, dated 2018).

Assays:
[1] = test system: excitotoxic effect induced by kainate (kainic acid)
NMDA receptors = settings: regulating the Ca2+ influx in Ca2+ channels
[2] = compared with propofol
GABA receptors [3] = test system: GABA receptors
GABA receptors [4] = test system: GABA receptors; remark: listed apart in the source

Q: Which results are given for `CC(C)c1cc(-c2cc(C(C)C)c(O)c(C(C)C)c2)cc(C(C)C)c1O` [biphenol]?
A: protection against the excitotoxic effect induced by kainate [1]: protection; loss of consciousness (patients): does not cause the patients to lose consciousness; action at NMDA receptors (NMDA receptors): antagonist; lipid solubility: highly lipid soluble; solubility in water: difficult to dissolve in water; antioxidant strength [2]: significantly stronger antioxidant than propofol; affinity towards GABA receptors (GABA receptors [3]): strong affinity; action at GABA receptors (GABA receptors [4]): agonist
